{"source": "patent US20050090466A1", "about": "“Inhibitors of PACE4 for the treatment of arthritis” (Pharmacia & Upjohn Company LLC, priority 2003, published 2005)", "key": {"[1]": {"tested_on": "PACE4 mRNA", "experiment": "Aggrecanase activity in TNF-α and OSM stimulated cultured human chondrocytes after PACE4 RNAi", "assay_type": "cell-based", "details": "100 nM dsRNA; human chondrocytes stimulated with TNF-α and OSM; vs stimulated controls; FIG. 1", "protocol": "(§1) The sequence CGGCAAUGAUUAUGACCCAtt (SEQ ID NO. 2) was selected as a sense strand for dsRNA. The corresponding antisense strand, UGGGUCAUAAUCAUUGCCGtt, (SEQ ID NO. 3) was also selected. dsRNA was synthesized commercially (Ambion, Austin, Tex. 78744-1832 USA) and 100 nM was introduced into cultured human chondrocytes and human cartilage stimulated with TNF-α and Oncostatin M (OSM). It is known that stimulation of cartilage or chondrocytes with TNF-α and OSM will induce cartilage degradation and upregulate aggrecanase. Nonsense dsRNA, that is, dsRNA with the same […], but scrambled in sequence, were introduced into cultured human chondrocytes and human cartilage explants as controls. The control groups are not expected to induce RNAi, since the dsRNA is not expected to produce an inhibitory effect on mRNA. […] 2 and SEQ ID NO. 3."}, "[2]": {"tested_on": "PACE4 mRNA", "experiment": "Glycosaminoglycan (GAG) release from TNF/OSM treated cartilage explants into the supernatant", "assay_type": "cell-based, human", "details": "100 nM dsRNA, vs nonsense dsRNA, FIG. 3", "source_text": "FIG. 3 is a bar graph showing glycosaminoglycan (GAG) release from cartilage explants into the supernatant is reduced in TNF/OSM treated cartilage explants with the addition of siRNA of SEQ ID NO. 2 and SEQ ID NO. 3 (narrow shaded bar) as compared with normal control (unshaded bar) and TNF/OSM treated cartilage explants with nonsense dsRNA.\nas §1\nGlycosaminoglycan (GAG) release from proteoglycan and depressed proteoglycan synthesis are thought to be correlated with cartilage destruction in arthritis. […]"}, "[3]": {"tested_on": "PACE4 mRNA", "experiment": "Electrophoresis gel of aggrecan degradation products in TNF/OSM treated cartilage explants", "assay_type": "cell-based, human", "details": "100 nM dsRNA, vs controls, FIG. 2", "protocol": "FIG. 2 depicts an electrophoresis gel showing aggrecan-degradation products in untreated (lane 1), TNF/OSM treated control (lane 2) and TNF/OSM treated, PACE4 siRNA treated cartilage explants; and\nas §1\nReferring now to FIG. 2, the aggrecanase mediated cleavage of aggrecan, shown by the aggrecan derived peptide neopitope fragment AGEG (SEQ ID NO. 10) and the aggrecan derived peptide neopepitope fragment ARGS (SEQ ID NO. 11) was reduced with interfering dsRNA, as compared to controls."}}, "data": [{"substance": "siRNA of SEQ ID NO. 2 and SEQ ID NO. 3: dsRNA: sense strand CGGCAAUGAUUAUGACCCAtt (SEQ ID NO. 2), antisense strand UGGGUCAUAAUCAUUGCCGtt (SEQ ID NO. 3); inhibits PACE4 mRNA (sense CGGCAAUGAUUAUGACCCATT; antisense UGGGUCAUAAUCAUUGCCGTT; dsRNA with lower-case tt overhangs, chemistry of tt not given here, further chemistry not given here)", "values": [{"measurement": "reduction in aggrecanase activity", "setting": "[1]", "result": "greater than eighty percent reduction"}, {"measurement": "glycosaminoglycan (GAG) release from cartilage explants into the supernatant", "setting": "[2]", "result": "reduced"}, {"measurement": "aggrecanase mediated cleavage of aggrecan (neoepitope fragments AGEG and ARGS)", "setting": "[3]", "result": "reduced"}]}]}
